Experimental data published in patent publication US20020161007A1, “Non-steroidal modulators of estrogen receptors” (priority 2001, published 2002).

Assays:
[1] = system: human breast tumor MCF-7 cell line; assay: MTT antiproliferative assay on human MCF-7 cell line; format: cell-based; details: Homo sapiens, MCF7; MTT inhibition of proliferation, mean of triplicate determinations; read-out: IC50 Range
Text: EXAMPLE 14—Determination of the antiproliferative effects on human MCF-7 cell lines.
MTT is a yellow tetrazolium salt which is taken up only by metabolically active cells and subsequently cleaved by mitochondrial dehydrogenases to yield a purple crystalline formazan dye. On solubilisation this purple color may be read spectrophotometrically at 570 nm. The absorbance measured at this wavelength is directly proportional to the amount of viable cells present.
Procedure : The human breast tumor MCF-7 cell line was cultured in Eagles minimum essential medium in a 5% CO2 atmosphere with 10% fetal calf serum. The medium was supplemented with 1% non-essential amino acids. The cells were trypsinized and seeded at a density of 1.5×10^4 into a 96-well plate and incubated at 37° C., 5% CO2 atmosphere for 24 h. […] Control wells contained the equivalent volume of the vehicle ethanol (1% v/v). The culture medium was then removed and the cells washed with 100 μl PBS and 50 μl MTT added, to reach a final concentration of 1 mg/ml MTT added. The cells were incubated for 2 h in darkness at […]. At this point solubilisation was begun through the addition of 200 μl DMSO and the cells maintained at room temperature in darkness for 20 min to ensure thorough color diffusion before reading the absorbance. The absorbance value of control cells (no added compound) was set to 100% cell viability. Graphs of absorbance versus cell density per well were prepared to assess cell viability.

[2] = biological target: T1, estrogen receptor (Rattus norvegicus, UniProt P06211); assay: Displacement of tritium-labelled estradiol from estrogen receptor-rich uterine cytosol; format: binding; details: mean ± SEM
T1 construct: Estrogen receptor-rich cytosol was obtained from the uteri; from tissue; host or cells: uterus of immature Sprague-Dawley rats (cytosol, 100,000 x g supernatant, DCC-treated)
T1 sequence (P06211 1-600): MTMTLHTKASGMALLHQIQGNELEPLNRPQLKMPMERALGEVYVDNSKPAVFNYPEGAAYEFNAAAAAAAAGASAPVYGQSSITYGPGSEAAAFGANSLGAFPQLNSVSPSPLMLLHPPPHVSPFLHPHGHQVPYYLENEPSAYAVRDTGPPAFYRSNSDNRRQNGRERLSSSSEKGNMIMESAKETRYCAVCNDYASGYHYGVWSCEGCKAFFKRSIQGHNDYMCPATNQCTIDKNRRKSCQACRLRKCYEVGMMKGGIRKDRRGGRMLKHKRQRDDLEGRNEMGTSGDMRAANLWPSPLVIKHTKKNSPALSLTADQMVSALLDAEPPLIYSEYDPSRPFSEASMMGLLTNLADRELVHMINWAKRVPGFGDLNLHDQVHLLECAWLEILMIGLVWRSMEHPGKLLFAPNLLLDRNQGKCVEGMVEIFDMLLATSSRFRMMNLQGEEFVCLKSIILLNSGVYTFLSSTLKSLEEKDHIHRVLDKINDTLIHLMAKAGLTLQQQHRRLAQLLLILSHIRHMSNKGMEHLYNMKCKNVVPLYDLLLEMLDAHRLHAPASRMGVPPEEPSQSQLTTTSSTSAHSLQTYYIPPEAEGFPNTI
Experimental: EXAMPLE 16—Determination of the binding affinity of compounds for estrogen receptor
Binding affinity (Ki value) for the estrogen receptor is measured by the ability of the compound to displace tritium-labelled estradiol from the receptor site.
Procedure Estrogen receptor-rich cytosol was obtained from the uteri of humanely sacrificed Sprague-Dawley immature rats (100-150 g mass). Briefly, the uteri were homogenized in 0.01 M sodium phosphate buffer, pH 7.3, containing 0.15 M NaCl, 0.1% gelatin and 0.01% sodium azide. The homogenate was then centrifuged at 100,000×g, […]. The cytosol thus isolated was pretreated with dextran coated charcoal (DCC on ice) and re-isolated using centrifugation, before freezing at−20° C. for later use. The protein concentration of cytosol samples was determined using a standard Bradford protein assay and an appropriate protein concentration range (150 μg protein in a total volume of 0.14 ml) for assay prepared. The required amounts of tritium-labeled (hot) and non-labeled (cold) estradiol were calculated using standard saturation curve techniques. A fresh buffer solution was prepared (Tris[tris(hydroxymethyl)-aminomethane]buffer-10 mM, pH 7.4, containing 1.5 mM EDTA and 3 mM sodium azide). Displacement testing of the compounds was facilitated through the incubation of a buffered solution of a known concentration of the test compound with hot estradiol solution (specific activity 157 Ci/mmol-final conc. 5 nM/ tube), followed by the addition of estrogen receptor-rich cytosol (150 μg protein). Total and non-specific binding control assays were determined in the absence and presence of 14 μl of a 0.2 mM cold estradiol solution respectively, properly corrected for the presence of ethanol in the test (displacement) samples. Samples were vortexed to ensure homogeneity and refrigerated at […] for 16-20 h. After this time the samples were retreated with DCC on ice and centrifuged for ten min at 3500×g. A 170 μl sample was pipetted from each vial and diluted with 10 ml scintillation fluid (Ecoscint). […] The samples thus prepared were counted for radioactivity by liquid scintillation counting. Binding values were obtained as counts per minute (cpm) and were converted to disintegrations per minute (dpm) and computationally analysed using sigmoidal curve fitting programs EBDA and LIGAND [14] to fit the displacement curves and to calculate binding affinity values (Ki) for the test compounds.
The following table illustrates the relative binding affinity values measured for selected compounds, based on their ability to displace radiolabelled estradiol from estrogen receptor-rich cytosol. Values are expressed as the mean determined±SEM.

[3] = system: MCF-7 cells; assay: FACS (propidium iodide) assay for apoptotic induction in MCF-7 cells; format: cell-based, human; details: 50 μM, 16 hours
Experimental: EXAMPLE 17—Assay for determining apoptotic induction by compounds
Fluorescence Activated Cell Sorting
Procedure Following treatment of MCF-7 cells with apoptotic compounds, the cells were washed three times with PBS before being trypsinised and centrifuged at 300 g for 5 min. They were then resuspended in 200 μl PBS, made up to 2 ml with ice-cold ethanol (70% v/v) and left to sit on ice for at least 1 h to fix them. Approximately 1 h prior to use they were centrifuged at 300 g for 3 min and the supernatant carefully pipeted off. The pellet was resuspended in 800 μl PBS. RNAase (100 μL; 1mg/mL) and 100 μL of the fluorescent dye propidium iodide (PI; 400 μg/mL) which binds DNA were added. The tubes were vortexed and incubated at 37° C. for 30 min. Flow cytometry was performed with a FACS calibur flow cytometer from Becton Dickinson. FACS data was analysed using the programme Cell Quest.

| SMILES | IC50 [1] | Ki [2] | % Cell cycle phases G1 [3] | % Cell cycle phases G2/M [3] | % Cell cycle phases S [3] | % Cell cycle phases sub-G1 ([3]; sub-G1 apoptotic peak) |
| --- | --- | --- | --- | --- | --- | --- |
| CCC(Cc1ccccc1)=C(c1ccccc1)c1ccc(OCCN(C)C)cc1 (racemic) [Compound 1, 2-Benzyl-1-phenyl-1-[4-(dimethylaminoethoxy)phenyl]but-1-ene] | 10 to 15 µM | 0.459 ± 0.23 µM | – | – | – | – |
| CC/C(=C(\Cc1ccccc1)c1ccc(OCCN(C)C)cc1)c1ccccc1 [Compound 6, 1-Benzyl-2-phenyl-[(4-dimethyleaminoethoxy)phenyl]but-1-ene] | 20 to 25 µM | 0.503 ± 0.098 µM | – | – | – | – |
| CCC(=C(Cc1ccccc1)c1ccccc1)c1ccc(OCCN2CCCCC2)cc1 [Compound 14, 1-Benzyl-1-phenyl-2-[(4-pipyridinylethoxy)phenyl]but-1-ene] | 15 to 20 µM | 2.39 ± 0.35 µM | – | – | – | – |

Further lines, with some results ahead:

| IC50 [1] | Ki [2] | SMILES | % Cell cycle phases G1 [3] | % Cell cycle phases G2/M [3] | % Cell cycle phases S [3] | % Cell cycle phases sub-G1 ([3]; sub-G1 apoptotic peak) |
| --- | --- | --- | --- | --- | --- | --- |
| 15 to 20 µM | 2.48 ± 0.45 µM | CCC(=C(Cc1ccc(OCCN2CCOCC2)cc1)c1ccccc1)c1ccccc1 [Compound 20] | – | – | – | – |
| 0.01 to 0.1 µM | – | CCC(Cc1ccccc1)=C(c1ccc(O)cc1)c1ccc(OCCN2CCCC2)cc1 [Compound 25, 4-{2-Benzyl-1-[4-(2-pyrrolidin-1-yl-ethoxy)-phenyl]-but-1-enyl}-phenol] | 51.3% | 21.0% | 7.6% | 20.1% |
